Patent US20170172994A1, “COMPOSITIONS AND METHODS FOR TREATING BACTERIAL INFECTIONS” (WOCKHARDT LIMITED, priority 2013, published 2017)
pIC50: −log10 of the molar value.

Key:
Pseudomonas PBP 3 = target: T1, Pseudomonas PBP 3 (Pseudomonas aeruginosa, UniProt G3XD46); assay: biochemical; assay type: binding
T1 construct: endogenous in cells
Procedure: The phrase “selective and high affinity PBP binder” refers to a PBP binder which binds to only one PBP with very high affinity. In general, the term “selective and high affinity PBP binder” also includes those binders where a substantial fraction of binder selectively binds to only one PBP with high affinity.
The reaction mixtures were then denatured with 20 μl each of SDS-denaturing solution at 100° C. for 3 min PBPs were separated through 10% SDS polyacrylamide gel electrophoresis (Bio-Rad Laboratories, Hercules, Calif.). The protein gels were rinsed in water immediately after electrophoresis.

K. pneumoniae B88 [1] = assay: MIC determination; assay type: cell-based; conditions: Klebsiella pneumoniae; K. pneumoniae B88 (NDM, SHV, TEM)
Procedure: (§1) In a typical procedure for determining MIC values, overnight grown bacterial cultures were diluted appropriately and inoculated on the agar media containing doubling concentrations of the test compounds. Observation for growth or no growth was performed after 16-20 hours of incubation at 35±2° C. in ambient air. The overall procedure was performed as per Clinical and Laboratory Standards Institute (CLSI) recommendations (Clinical and Laboratory Standards Institute (CLSI), Performance Standards for Antimicrobial Susceptibility Testing, 20th Informational Supplement, M 100-S20, Volume 30, No. 1, 2010).

P. mirabilis G 186 = assay: MIC determination; assay type: cell-based; conditions: Proteus mirabilis, G186; P. mirabilis G 186 (NDM, TEM)
Procedure: as §1

K. pneumoniae B88 [2] = assay: Minimum filamentation / spheroplasting concentration; conditions: K. pneumoniae B88 (NDM, SHV, TEM); minimum spheroplasting concentration
Description: The term “MSC” as used herein refers to minimum spheroplasting concentration, which is the minimum concentration of an antibacterial agent at which about 80% of bacterial cells covert into spheroplasts.
The term “MFC” as used herein refers to minimum filamentation concentration, which is the minimum concentration of an antibacterial agent at which about 80% of bacterial cells get elongated to form filament like structures.

[3] = system: Pseudomonas aeruginosa NCTC 13437 producing carbapenem hydrolyzing MBL (VIM 10) & Class A (VEB1); assay: Time kill study (viability count); assay type: cell-based; conditions: Cefepime 8 μg/ml, Compound of Formula (III) 8 μg/ml, Imipenem 16 μg/ml
P. aeruginosa PAO1 = assay: Time kill study (viability count); assay type: cell-based; conditions: for Bacterial count: Compound of Formula (III) 4 μg/ml, alone or combined
E. coli ATCC 25922 = assay: Time kill study (viability count); assay type: cell-based; conditions: for Bacterial count: Compound of Formula (III) 2 μg/ml, alone or combined
[4] = system: Acinetobacter baumannii NCTC 13304 producing carbapenem hydrolyzing Class D OXA enzyme (OXA 27); assay: Time kill study (viability count); assay type: cell-based; conditions: Cefepime 8 μg/ml, Compound of Formula (III) 8 μg/ml, Imipenem 16 μg/ml
[5] = system: ESBL enzymes from K. pneumoniae S48 producing Metalo betalactamase (NDM4) and Class A (CTX-M, SHV, TEM) beta-lactamase; assay: Beta-lactamase stability study (crude enzyme extract, then drug diffusion assay on E. coli ATCC 25922); assay type: biochemical; conditions: for Inhibition zone diameter after treatment with beta-lactamase enzyme: 40 μg/ml, zone on E. coli ATCC 25922
Procedure: Next, the beta-lactamase stability of some of these compounds was evaluated. In a typical stability study, ESBL enzymes from K. pneumoniae S48 producing Metalo betalactamase (NDM4) and Class A (CTX-M, SHV, TEM) beta-lactamase were isolated from freshly grown culture by 5 repetitive cycles of freeze and thaw in liquid nitrogen. […] After the stipulated incubation duration, the test compounds were extracted from the reaction mixture by the addition of 0.5 ml of Acetonitrile in 1:1 ratio (final concentration of test compound—40 μg/ml) and centrifuged at 12000 rpm for 2 min to separate precipitated protein. The activity of test compounds was measured from the supernatant by performing microbiological drug diffusion assay. For drug diffusion assay, Muller-Hinton Agar (MHA) seeded with E. coli ATCC 25922 was poured on to a bioassay plate placed on a flat surface and allowed to solidify. Appropriate concentration of the standalone and enzyme treated test compound dilutions were added to 6 mm wells cut with the help of a borer. The antibacterial activity of the test compounds was measured in terms of zones of inhibition appearing after 18-24 hours of incubation at 37° C. Measurement of diameter of zone of inhibition was undertaken to the nearest whole value with the help of ruler.

T1 sequence (G3XD46 whole entry): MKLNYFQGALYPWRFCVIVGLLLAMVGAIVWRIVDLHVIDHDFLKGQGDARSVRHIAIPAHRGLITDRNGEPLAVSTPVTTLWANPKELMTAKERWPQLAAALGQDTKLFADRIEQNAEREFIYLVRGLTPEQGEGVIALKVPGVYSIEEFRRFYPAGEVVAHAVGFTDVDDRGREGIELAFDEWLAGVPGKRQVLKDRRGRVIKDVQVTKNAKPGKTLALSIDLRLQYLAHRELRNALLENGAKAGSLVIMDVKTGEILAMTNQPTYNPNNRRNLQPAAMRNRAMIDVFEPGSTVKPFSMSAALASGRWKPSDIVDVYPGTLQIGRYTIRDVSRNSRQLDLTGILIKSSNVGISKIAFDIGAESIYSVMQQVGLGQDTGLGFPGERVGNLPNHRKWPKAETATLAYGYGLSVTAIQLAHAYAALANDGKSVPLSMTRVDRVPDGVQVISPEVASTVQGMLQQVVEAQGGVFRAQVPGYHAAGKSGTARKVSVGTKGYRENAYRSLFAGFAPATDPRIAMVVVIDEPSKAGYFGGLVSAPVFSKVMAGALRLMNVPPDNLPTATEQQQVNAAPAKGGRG

O=C(NNC(=O)[C@@H]1CC[C@@H]2CN1C(=O)N2OS(=O)(=O)O)[C@@H]1CCCNC1 [Compound of Formula (III), trans-(2S,5R)-sulfuric acid mono-[2-(N′—[(R)-piperidin-3-carbonyl]-hydrazino Carbonyl)-7-oxo-1,6-diaza-bicyclo[3.2.1]oct-6-yl] Ester]
pIC50 (Pseudomonas PBP 3): < 4.99
MIC (K. pneumoniae B88 [1]): 8 µg/mL
MIC (P. mirabilis G 186): > 64 µg/mL
MSC (K. pneumoniae B88 [2]): 0.12 µg/mL
Bacterial count ([3]; 0 hour): 6.0 log (CFU/ml)
Bacterial count ([3]; 2 hours): 6.55 log (CFU/ml)
Bacterial count ([3]; 4 hours): 5.9 log (CFU/ml)
Bacterial count ([3]; 6 hours): 5.81 log (CFU/ml)
Bacterial count ([3]; 12 hours): 6.2 log (CFU/ml)
Bacterial count (P. aeruginosa PAO1; 0 hour, Aztreonam 2 μg/ml): 5.74 log (CFU/ml)
Bacterial count (P. aeruginosa PAO1; 0 hour, Cefsulodin 2 μg/ml): 6.81 log (CFU/ml)
Bacterial count (P. aeruginosa PAO1; 2 hours, Aztreonam 2 μg/ml): 6.5 log (CFU/ml)
Bacterial count (P. aeruginosa PAO1; 2 hours, Cefsulodin 2 μg/ml): 7.23 log (CFU/ml)
Bacterial count (P. aeruginosa PAO1; 4 hours, Aztreonam 2 μg/ml): 7.6 log (CFU/ml)
Bacterial count (P. aeruginosa PAO1; 4 hours, Cefsulodin 2 μg/ml): 7.18 log (CFU/ml)
Bacterial count (P. aeruginosa PAO1; 6 hours, Aztreonam 2 μg/ml): 7.9 log (CFU/ml)
Bacterial count (P. aeruginosa PAO1; 6 hours, Cefsulodin 2 μg/ml): 7.5 log (CFU/ml)
Bacterial count (P. aeruginosa PAO1; 24 hours, Aztreonam 2 μg/ml): 8.8 log (CFU/ml)
Bacterial count (P. aeruginosa PAO1; 24 hours, Cefsulodin 2 μg/ml): 8.2 log (CFU/ml)
Bactericidal action (in words) (P. aeruginosa PAO1; P. aeruginosa PAO1, standalone or combination, Tables 6 and 7): did not exhibit any bactericidal action
Bacterial count (E. coli ATCC 25922; 0 hour, Aztreonam 1 μg/ml): 7.47 log (CFU/ml)
Bacterial count (E. coli ATCC 25922; 0 hour, Cefoxitin 1 μg/ml): 7.47 log (CFU/ml)
Bacterial count (E. coli ATCC 25922; 0 hour, Cefsulodin 16 μg/ml): 7.47 log (CFU/ml)
Bacterial count (E. coli ATCC 25922; 2 hours, Aztreonam 1 μg/ml): 7.85 log (CFU/ml)
Bacterial count (E. coli ATCC 25922; 2 hours, Cefoxitin 1 μg/ml): 7.85 log (CFU/ml)
Bacterial count (E. coli ATCC 25922; 2 hours, Cefsulodin 16 μg/ml): 7.85 log (CFU/ml)
Bacterial count (E. coli ATCC 25922; 4 hours, Aztreonam 1 μg/ml): 7.88 log (CFU/ml)
Bacterial count (E. coli ATCC 25922; 4 hours, Cefoxitin 1 μg/ml): 7.88 log (CFU/ml)
Bacterial count (E. coli ATCC 25922; 4 hours, Cefsulodin 16 μg/ml): 7.88 log (CFU/ml)
Bacterial count (E. coli ATCC 25922; 6 hours, Aztreonam 1 μg/ml): 8.26 log (CFU/ml)
Bacterial count (E. coli ATCC 25922; 6 hours, Cefoxitin 1 μg/ml): 8.26 log (CFU/ml)
Bacterial count (E. coli ATCC 25922; 6 hours, Cefsulodin 16 μg/ml): 8.26 log (CFU/ml)
Bacterial count (E. coli ATCC 25922; 24 hours, Aztreonam 1 μg/ml): 8.34 log (CFU/ml)
Bacterial count (E. coli ATCC 25922; 24 hours, Cefoxitin 1 μg/ml): 8.34 log (CFU/ml)
Bacterial count (E. coli ATCC 25922; 24 hours, Cefsulodin 16 μg/ml): 8.34 log (CFU/ml)
Bactericidal action (in words) (E. coli ATCC 25922; E. coli ATCC 25922, standalone or combination, Tables 3 to 5): did not exhibit any significant bactericidal action
Bacterial count ([4]; 0 hour): 6.3 log (CFU/ml)
Bacterial count ([4]; 2 hours): 7.5 log (CFU/ml)
Bacterial count ([4]; 4 hours): 7.9 log (CFU/ml)
Bacterial count ([4]; 6 hours): 8.1 log (CFU/ml)
Bacterial count ([4]; 8 hours): 8.1 log (CFU/ml)
Inhibition zone diameter after treatment with beta-lactamase enzyme ([5]; 0 hour incubation at 37° C.): 16 mm
Inhibition zone diameter after treatment with beta-lactamase enzyme ([5]; 1 hour incubation at 37° C.): 16 mm
Inhibition zone diameter after treatment with beta-lactamase enzyme ([5]; 2 hours incubation at 37° C.): 16 mm
Inhibition zone diameter after treatment with beta-lactamase enzyme ([5]; 24 hours incubation at 37° C.): 16 mm
Stability to beta-lactamase (in words) ([5]; carbapenem hydrolyzing metallo beta-lactamase, up to 24 hours): stable and not inactivated by the beta-lactamase
